Source: patent publication US11078168B2, “Substituted N-hydroxyamidinoheterocycles as modulators of indoleamine 2,3-dioxygenase” (PHENEX DISCOVERY VERWALTUNGS-GMBH, priority 2016, dated 2021)

The molecules below were run against T1, Indoleamine 2,3-dioxygenase (Homo sapiens, UniProt P14902) (assay: SKOV-3 cellular Indoleamine 2,3-dioxygenase assay). Settings: SKOV-3 cells, 50 ng/ml Interferon gamma, 100 μM L-Tryptophan, 24 hours, N-Formylkynurenin fluorescence detection; read-out: cell based activity.
T1 construct: endogenous in cells; host or cells: SKOV-3 (ATCC HTB-77), stimulated with interferon gamma
T1 sequence (P14902 whole entry): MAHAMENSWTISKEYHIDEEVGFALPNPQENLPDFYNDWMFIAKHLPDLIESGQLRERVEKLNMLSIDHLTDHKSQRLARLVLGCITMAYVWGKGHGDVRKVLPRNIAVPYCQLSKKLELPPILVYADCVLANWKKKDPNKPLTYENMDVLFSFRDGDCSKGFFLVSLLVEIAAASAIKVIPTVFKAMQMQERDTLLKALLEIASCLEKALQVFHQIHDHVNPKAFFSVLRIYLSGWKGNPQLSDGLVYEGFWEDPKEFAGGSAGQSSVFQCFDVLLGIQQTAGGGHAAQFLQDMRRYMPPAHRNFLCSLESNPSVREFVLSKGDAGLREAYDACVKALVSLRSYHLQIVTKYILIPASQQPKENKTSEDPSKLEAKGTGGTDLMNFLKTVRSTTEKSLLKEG
Method in brief: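 SKOV-3 cells stimulated with 50 ng/ml interferon gamma, exposed to compound dilutions with L-tryptophan at 100 µM final for 24 h at 37 °C. N-formylkynurenine detected by 200 mM 3-methylpiperidine, 65 °C for 20 min, fluorescence ex 405/em 535 nm.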
In the case of CC1(C(=O)NCCSc2nonc2/C(=N/O)Nc2ccc(F)c(C(F)F)c2)CCN1 (stereo not shown) [123/3], the IC50 is reported as less than 100 nM. O=C(NCCSc1nonc1C(=NO)Nc1ccc(F)c(C(F)F)c1)C1CCN1 (stereo not shown) [123/4] showed an IC50 of less than 100 nM. Molecule CC1(C(=O)NCCSc2nonc2C(=NO)Nc2ccc(F)c(C(F)F)c2)CNC1 [123/5] has an IC50 of less than 100 nM. With O=C(NCCSc1nonc1C(=NO)Nc1ccc(F)c(C(F)F)c1)C1(F)CNC1 [123/6] the IC50 was less than 100 nM. NC(CC(=O)NCCSc1nonc1C(=NO)Nc1ccc(F)c(C(F)F)c1)C(F)(F)F (stereo not shown) [123/7] showed an IC50 of less than 100 nM. CS(=N)(=O)CC(=O)NCCSc1nonc1C(=NO)Nc1ccc(F)c(C(F)F)c1 (stereo not shown) [127/1] was tested, and the IC50 was less than 100 nM. In the case of CS(=N)(=O)CC(=O)NCCSc1nonc1C(=NO)Nc1ccc(F)c(C(F)(F)F)c1 (stereo not shown) [127/2], the IC50 is reported as less than 100 nM. Work on CS(=N)(=O)CC(=O)NCCSc1nonc1C(=NO)Nc1cccc(Cl)c1 (stereo not shown) [127/3] yielded an IC50 of less than 100 nM. CS(=N)(=O)CC(=O)NCCSc1nonc1C(=NO)Nc1cccc(Br)c1 (stereo not shown) [127/4] gave an IC50 of less than 100 nM. Molecule NS(=O)(=O)NCC(=O)NCCSc1nonc1C(=NO)Nc1ccc(F)c(C(F)(F)F)c1 [128/1] has an IC50 of less than 100 nM. Work on CS(=O)(=O)NCC(=O)NCCSc1nonc1C(=NO)Nc1ccc(F)c(C(F)F)c1 [128/2] yielded an IC50 of less than 100 nM. CC(=O)N1CC(O)(C(=O)NCCSc2nonc2C(=NO)Nc2ccc(F)c(C(F)F)c2)C1 [128/3] gave an IC50 of less than 100 nM. For NC(=O)N1CC(O)(C(=O)NCCSc2nonc2C(=NO)Nc2ccc(F)c(C(F)F)c2)C1 [128/4], the IC50 was 100 to 1000 nM. For CS(=O)(=O)N1CC(O)(C(=O)NCCSc2nonc2C(=NO)Nc2ccc(F)c(C(F)F)c2)C1 [128/5], the IC50 was less than 100 nM. With NS(=O)(=O)N1CC(O)(C(=O)NCCSc2nonc2C(=NO)Nc2ccc(F)c(C(F)F)c2)C1 [128/6] the IC50 was less than 100 nM. With NS(=O)(=O)N1CC(C(=O)NCCSc2nonc2C(=NO)Nc2ccc(F)c(C(F)F)c2)C1 [128/7] the IC50 was less than 100 nM. Work on CS(=O)(=O)NCCOc1nonc1/C(=N/O)Nc1ccc(F)c(Br)c1 [Example 1, N-(3-Bromo-4-fluorophenyl)-N′-hydroxy-4-(2-(methylsulfonamido)ethoxy)-1,2,5-oxadiazole-3-carboximidamide] yielded an IC50 of less than 100 nM. In the case of Nc1c(NCCOc2nonc2C(=NO)Nc2ccc(F)c(Cl)c2)c(=O)c1=O [Example 2, 4-(2-((2-Amino-3,4-dioxocyclobut-1-en-1-yl)amino)ethoxy)-N-(3-chloro-4-fluorophenyl)-N′-hydroxy-1,2,5-oxadiazole-3-carboximidamide], the IC50 is reported as less than 100 nM. O=C(NCCOc1nonc1C(=NO)Nc1ccc(F)c(Cl)c1)C1COCCN1 (stereo not shown) [Example 3, N-(2-((4-(N-(3-Chloro-4-fluorophenyl)-N′-hydroxycarbamimidoyl)-1,2,5-oxadiazol-3-yl)oxy)ethyl)morpholine-3-carboxamide] gave an IC50 of 100 to 1000 nM. NC(=O)C(=O)NCCOc1nonc1C(=NO)Nc1ccc(F)c(Cl)c1 [Example 4, N^1-(2-((4-(N-(3-Chloro-4-fluorophenyl)-N′-hydroxycarbamimidoyl)-1,2,5-oxadiazol-3-yl)oxy)ethyl)oxalamide] gave an IC50 of 100 to 1000 nM. With NC(=O)NCCOc1nonc1C(=NO)Nc1ccc(F)c(Cl)c1 [Example 5, N-(3-Chloro-4-fluorophenyl)-N′-hydroxy-4-(2-ureidoethoxy)-1,2,5-oxadiazole-3-carboximidamide] the IC50 was less than 100 nM. NS(=O)(=O)NCCOc1nonc1/C(=N/O)Nc1ccc(F)c(Br)c1 [Example 6, N-(3-Bromo-4-fluorophenyl)-N′-hydroxy-4-(2-(sulfamoylamino)ethoxy)-1,2,5-oxadiazole-3-carboximidamide] gave an IC50 of less than 100 nM. NC(=O)C1(C(=O)NCCOc2nonc2C(=NO)Nc2ccc(F)c(Cl)c2)CC1 [Example 7, N-(2-((4-(N-(3-chloro-4-fluorophenyl)-N′-hydroxycarbamimidoyl)-1,2,5-oxadiazol-3-yl)oxy)ethyl)cyclopropane-1,1-dicarboxamide] gave an IC50 of less than 100 nM. ON=C(Nc1ccc(F)c(Br)c1)c1nonc1OCc1ccccc1 [Example 8, 4-(Benzyloxy)-N-(3-bromo-4-fluorophenyl)-N′-hydroxy-1,2,5-oxadiazole-3-carboximidamide] gave an IC50 greater than 1000 nM. Molecule O=C(NCCOc1nonc1C(=NO)Nc1ccc(F)c(Cl)c1)c1nnn[nH]1 [Example 9, N-(2-((4-(N-(3-chloro-4-fluorophenyl)-N′-hydroxycarbamimidoyl)-1,2,5-oxadiazol-3-yl)oxy)ethyl)-1H-tetrazole-5-carboxamide] has an IC50 greater than 1000 nM. For ON=C(Nc1ccc(F)c(Cl)c1)c1nonc1OCCN1CCOCC1 [Example 10, N-(3-Chloro-4-fluorophenyl)-N′-hydroxy-4-(2-morpholinoethoxy)-1,2,5-oxadiazole-3-carboximidamide], the IC50 was 100 to 1000 nM. In the case of NC(=O)CCCOc1nonc1C(=NO)Nc1ccc(F)c(Cl)c1 [Example 11, 4-((4-(N-(3-Chloro-4-fluorophenyl)-N′-hydroxycarbamimidoyl)-1,2,5-oxadiazol-3-yl)oxy)butanamide], the IC50 is reported as 100 to 1000 nM. Work on Cc1nnc(CCCOc2nonc2C(=NO)Nc2ccc(F)c(Cl)c2)[nH]1 [Example 12, N-(3-Chloro-4-fluorophenyl)-N′-hydroxy-4-(3-(5-methyl-4H-1,2,4-triazol-3-yl)propoxy)-1,2,5-oxadiazole-3-carboximidamide] yielded an IC50 of 100 to 1000 nM. O=C(O)CCOc1nonc1C(=NO)Nc1ccc(F)c(Cl)c1 [Example 13, 3-((4-(N-(3-Chloro-4-fluorophenyl)-N′-hydroxycarbamimidoyl)-1,2,5-oxadiazol-3-yl)oxy)propanoic acid] gave an IC50 greater than 1000 nM. With Cc1nnc(NCCOc2nonc2C(=NO)Nc2ccc(F)c(Cl)c2)o1 [Example 14, N-(3-Chloro-4-fluorophenyl)-N′-hydroxy-4-(2-((5-methyl-1,3,4-oxadiazol-2-yl)amino)ethoxy)-1,2,5-oxadiazole-3-carboximidamide] the IC50 was 100 to 1000 nM. With Nc1nnc(NCCOc2nonc2C(=NO)Nc2ccc(F)c(Cl)c2)[nH]1 [Example 15, 4-(2-((5-Amino-4H-1,2,4-triazol-3-yl)amino)ethoxy)-N-(3-chloro-4-fluorophenyl)-N′-hydroxy-1,2,5-oxadiazole-3-carboximidamide] the IC50 was 100 to 1000 nM. For CC(CN)Oc1nonc1C(=NO)Nc1ccc(F)c(Cl)c1 (stereo not shown) [Example 17, 4-((1-Aminopropan-2-yl)oxy)-N-(3-chloro-4-fluorophenyl)-N′-hydroxy-1,2,5-oxadiazole-3-carboximidamide], the IC50 was 100 to 1000 nM. With O=C(NCCOc1nonc1C(=NO)Nc1ccc(F)c(Cl)c1)N1C[C@@H](O)[C@@H](O)C1 [Example 18, (3S,4R)—N-(2-((4-(N-(3-Chloro-4-fluorophenyl)-N′-hydroxycarbamimidoyl)-1,2,5-oxadiazol-3-yl)oxy)ethyl)-3,4-dihydroxypyrrolidine-1-carboxamide] the IC50 was 100 to 1000 nM. In the case of CS(=O)(=O)CCOc1nonc1C(=NO)Nc1ccc(F)c(Cl)c1 [Example 20, N-(3-Chloro-4-fluorophenyl)-N′-hydroxy-4-(2-(methylsulfonyl)ethoxy)-1,2,5-oxadiazole-3-carboximidamide], the IC50 is reported as greater than 1000 nM. Molecule CS(=N)(=O)NCCOc1nonc1C(=NO)Nc1ccc(F)c(Cl)c1 (stereo not shown) [Example 21, N-(3-Chloro-4-fluorophenyl)-N-hydroxy-4-(2-(methylsulfonoamidimidamido)ethoxy)-1,2,5-oxadiazole-3-carboximidamide] has an IC50 of 100 to 1000 nM. COc1nonc1C(=NO)Nc1cccc(CCCl)c1 [Example 22, N-(3-(2-Chloroethyl)phenyl)-N′-hydroxy-4-methoxy-1,2,5-oxadiazole-3-carboximidamide] showed an IC50 greater than 1000 nM. Molecule CS(=O)(=O)NCCSc1nonc1/C(=N/O)Nc1ccc(F)c(Br)c1 [Example 100, N-(3-Bromo-4-fluorophenyl)-N′-hydroxy-4-((2-(methylsulfonamido)ethyl)thio)-1,2,5-oxadiazole-3-carboximidamide] has an IC50 of less than 100 nM. In the case of NS(=O)(=O)NCCSc1nonc1/C(=N/O)Nc1ccc(F)c(Br)c1 [Example 101, N-(3-Bromo-4-fluorophenyl)-N′-hydroxy-4-((2-(sulfamoylamino)ethyl)thio)-1,2,5-oxadiazole-3-carboximidamide], the IC50 is reported as less than 100 nM. Nc1c(NCCSc2nonc2C(=NO)Nc2ccc(F)c(Cl)c2)c(=O)c1=O [Example 102, 4-((2-((2-Amino-3,4-dioxocyclobut-1-en-1-yl)amino)ethyl)thio)—N-(3-chloro-4-fluorophenyl)-N′-hydroxy-1,2,5-oxadiazole-3-carboximidamide] was tested, and the IC50 was less than 100 nM. Work on ON=C(Nc1ccc(F)c(Cl)c1)c1nonc1SCc1ccccc1 [Example 103, 4-(Benzylthio)—N-(3-chloro-4-fluorophenyl)-N′-hydroxy-1,2,5-oxadiazole-3-carboximidamide] yielded an IC50 of 100 to 1000 nM. CSc1nonc1/C(=N/O)Nc1ccc(F)c(Br)c1 [Example 103/1, N-(3-bromo-4-fluorophenyl)-N′-hydroxy-4-(methylthio)-1,2,5-oxadiazole-3-carboximidamide] was tested, and the IC50 was less than 100 nM. In the case of ON=C(Nc1ccc(F)c(Br)c1)c1nonc1SCC(F)(F)F [Example 103/2], the IC50 is reported as less than 100 nM. Molecule ON=C(Nc1ccc(F)c(Br)c1)c1nonc1SC1CC1 [Example 103/3] has an IC50 of less than 100 nM. For O=S(=O)(Cc1ccccc1)c1nonc1C(=NO)Nc1ccc(F)c(Cl)c1 [Example 104, 4-(Benzylsulfonyl)-N-(3-chloro-4-fluorophenyl)-N′-hydroxy-1,2,5-oxadiazole-3-carboximidamide], the IC50 was greater than 1000 nM. C[S+]([O-])c1nonc1C(=NO)Nc1ccc(F)c(Br)c1 (stereo not shown) [Example 105, N-(3-Bromo-4-fluorophenyl)-N′-hydroxy-4-(methylsulfinyl)-1,2,5-oxadiazole-3-carboximidamide] was tested, and the IC50 was 100 to 1000 nM. CS(=N)(=O)c1nonc1C(=NO)Nc1ccc(F)c(Br)c1 (stereo not shown) [Example 106, N-(3-Bromo-4-fluorophenyl)-N′-hydroxy-4-(S-methylsulfonimidoyl)-1,2,5-oxadiazole-3-carboximidamide] gave an IC50 greater than 1000 nM.
